Measurements as given in US20030017186A1, “Carboxylic acid fluorides as pesticides” (priority 1999, published 2003).

Experiments:
Type in all cases: in vivo
[1] = test system: House longhorn beetle (Hylotrupes bajulus); assay: Fumigation test in glass vessel, house longhorn beetles; conditions: HYLOBA beetles; Example 7; ACF 53.0/54.6/0 g/m^3, second gas (SF) 43.6/41.4/39.8 g/m^3 (1st/2nd/3rd fumigation); 20.0/20.2/19.8 C.
Description: (§1) b1) House longhorn beetle (Hylotrupes bajulus)=HYLOBA
(§2) The test organisms, separated by species, were placed into a glass vessel measuring 30 cm×30 cm×60 cm, which was sealed with a glass lid so as to be airtight. The adults and the larvae of the mealworm beetle (Tenebrio molitor) and the broad-horned flour beetle (Gnathocerus cornutus) were placed into small glass vessels approximately 5 cm in diameter, which were closed with a gauze lid and in which they could freely move about. The larvae of the rice weevil had burrowed into seeds of grain. The wood pest larvae were inserted into small blocks of wood measuring 5 cm×2.5 cm×2 cm. The openings were sealed with wads of cotton wool. Only one each of the larvae of the house longhorn beetle (Hylotrupes bajulus) was inserted into a piece of wood, while 6-8 larvae of the common furniture beetle (Anobium punctatum) were inserted into each piece of wood.
(§3) The respective gas was then introduced into the fumigation vessel through a gas line from a gas tank that contained the specified amount of gas. After a defined time period, the fumigation vessel was purged with compressed air. The discharged gas was purified by an attached gas scrubber.
(§4) The beetles were observed until they died. This point was recorded for each species. The larvae of the wood pests as well as the larvae of the rice weevil (Sitophilus oryzae) had to be picked out of the wood or the grain to check their condition. If any of the animals were still alive, the wooden test blocks remaining in the vessel were fumigated again and were reexamined after the corresponding time span had elapsed. The same number of animals in the untreated control was also checked at each point.
(§5) The vitality of the animals was checked at certain time intervals. The beetles could be observed through the fumigation vessel. This was also true for the larvae of the mealworm beetle and the broad-horned flour beetle. The wooden test blocks of the wood pest larvae were opened with hammer and chisel. Tweezers were used to pull the rice weevil larvae out of the grain seeds. The exact time intervals and the number of the evaluated pests were documented in the test results.

[2] = test system: Mealworm beetle (Tenebrio molitor) larvae; assay: Fumigation test in glass vessel, mealworm beetle larvae; conditions: TENEMO larvae; Example 7; ACF 53.0/54.6/0 g/m^3, second gas (SF) 43.6/41.4/39.8 g/m^3 (1st/2nd/3rd fumigation); 20.0/20.2/19.8 C.
Description: (§6) a1) Mealworm beetle (Tenebrio molitor)=TENEMO
as §2, §3, §4, §5

[3] = test system: Broad-horned flour beetle (Gnathocerus cornutus) larvae; assay: Fumigation test in glass vessel, broad-horned flour beetle larvae; conditions: GNATCO larvae; Example 7; ACF 53.0/54.6/0 g/m^3, second gas (SF) 43.6/41.4/39.8 g/m^3 (1st/2nd/3rd fumigation); 20.0/20.2/19.8 C.
Description: (§7) a3) Broad-horned flour beetle (Gnathocerus cornutus)=GNATCO
as §2, §3, §4, §5

[4] = test system: Mealworm beetle (Tenebrio molitor); assay: Fumigation test in glass vessel, mealworm beetles; conditions: TENEMO beetles; Example 7; ACF 53.0/54.6/0 g/m^3, second gas (SF) 43.6/41.4/39.8 g/m^3 (1st/2nd/3rd fumigation); 20.0/20.2/19.8 C.
Description: as §6, §2, §3, §4, §5

[5] = test system: Rice weevil (Sitophilus oryzae); assay: Fumigation test in glass vessel, rice weevils; conditions: SITTOR beetles; Example 7; ACF 53.0/54.6/0 g/m^3, second gas (SF) 43.6/41.4/39.8 g/m^3 (1st/2nd/3rd fumigation); 20.0/20.2/19.8 C.
Description: a2) Rice weevil (Sitophilus oryzae)=SITTOR
as §2, §3, §4, §5

[6] = test system: Saw-toothed grain beetle (Oryzaephilus surinamensis); assay: Fumigation test in glass vessel, saw-toothed grain beetles; conditions: ORYZSA beetles; Example 7; ACF 53.0/54.6/0 g/m^3, second gas (SF) 43.6/41.4/39.8 g/m^3 (1st/2nd/3rd fumigation); 20.0/20.2/19.8 C.
Description: a4) Saw-toothed grain beetle (Oryzaephilus surinamensis)=ORYZSA
as §2, §3, §4, §5

[7] = test system: House longhorn beetle (Hylotrupes bajulus) larvae; assay: Fumigation test in glass vessel, house longhorn beetle larvae in wood blocks; conditions: HYLOBA larvae in wood blocks; Example 7; ACF 53.0/54.6/0 g/m^3, second gas (SF) 43.6/41.4/39.8 g/m^3 (1st/2nd/3rd fumigation); 20.0/20.2/19.8 C.
Description: as §1, §2, §3, §4, §5

[8] = test system: Broad-horned flour beetle (Gnathocerus cornutus); assay: Fumigation test in glass vessel, broad-horned flour beetles; conditions: GNATCO beetles; Example 7; ACF 53.0/54.6/0 g/m^3, second gas (SF) 43.6/41.4/39.8 g/m^3 (1st/2nd/3rd fumigation); 20.0/20.2/19.8 C.
Description: as §7, §2, §3, §4, §5

[9] = test system: Common furniture beetle (Anobium punctatum) larvae; assay: Fumigation test in glass vessel, common furniture beetle larvae in wood blocks; conditions: ANOBPU larvae in wood blocks; Example 7; ACF 53.0/54.6/0 g/m^3, second gas (SF) 43.6/41.4/39.8 g/m^3 (1st/2nd/3rd fumigation); 20.0/20.2/19.8 C.
Description: b2) Common furniture beetle (Anobium punctatum)=[…]
as §2, §3, §4, §5

SMILES: O=C(F)C(F)(F)Cl [CFACF, chlorodifluoroacetyl fluoride]
- Number alive, 30 min. after 1st Fumigation [1]: 0
- Number dead, 30 min. after 1st Fumigation [1]: 6
- Number alive, 30 min. after 1st Fumigation [2]: 10
- Number alive, 1 hr. after 1st Fumigation [2]: 10
- Number alive, 3 hrs. after 1st Fumigation [2]: 0
- Number dead, 30 min. after 1st Fumigation [2]: 0
- Number dead, 1 hr. after 1st Fumigation [2]: 0
- Number dead, 3 hrs. after 1st Fumigation [2]: 10
- Number alive, 30 min. after 1st Fumigation [3]: 7
- Number alive, 1 hr. after 1st Fumigation [3]: 7
- Number alive, 3 hrs. after 1st Fumigation [3]: 0
- Number dead, 30 min. after 1st Fumigation [3]: 8
- Number dead, 1 hr. after 1st Fumigation [3]: 8
- Number dead, 3 hrs. after 1st Fumigation [3]: 15
- Number alive, 30 min. after 1st Fumigation [4]: 10
- Number alive, 1 hr. after 1st Fumigation [4]: 10
- Number alive, 3 hrs. after 1st Fumigation [4]: 10
- Number alive, 6 hrs after 1st Fumigation [4]: 5
- Number dead, 30 min. after 1st Fumigation [4]: 0
- Number dead, 1 hr. after 1st Fumigation [4]: 0
- Number dead, 3 hrs. after 1st Fumigation [4]: 0
- Number dead, 6 hrs after 1st Fumigation [4]: 5
- Number alive, 30 min. after 1st Fumigation [5]: 7
- Number alive, 1 hr. after 1st Fumigation [5]: 7
- Number alive, 3 hrs. after 1st Fumigation [5]: 0
- Number dead, 30 min. after 1st Fumigation [5]: 8
- Number dead, 1 hr. after 1st Fumigation [5]: 8
- Number dead, 3 hrs. after 1st Fumigation [5]: 15
- Number alive, 30 min. after 1st Fumigation [6]: 0
- Number dead, 30 min. after 1st Fumigation [6]: 15
- Number alive, 1 hr. after 1st Fumigation [7]: 5
- Number alive, 3 hrs. after 1st Fumigation [7]: 5
- Number alive, 6 hrs after 1st Fumigation [7]: 5
- Number dead, 1 hr. after 1st Fumigation [7]: 0
- Number dead, 3 hrs. after 1st Fumigation [7]: 0
- Number dead, 6 hrs after 1st Fumigation [7]: 0
- Number alive, 30 min. after 1st Fumigation [8]: 0
- Number dead, 30 min. after 1st Fumigation [8]: 15
- Number alive, 1 hr. after 1st Fumigation [9]: 6
- Number alive, 3 hrs. after 1st Fumigation [9]: 3
- Number alive, 6 hrs after 1st Fumigation [9]: 4
- Number dead, 1 hr. after 1st Fumigation [9]: 0
- Number dead, 3 hrs. after 1st Fumigation [9]: 3
- Number dead, 6 hrs after 1st Fumigation [9]: 2
